Our source for the IC50 values is patent publication US20250270238A1, “A NEW BIFUNCTIONAL LINCHPIN THAT REACTS SELECTIVELY WITH CYSTEINE RESIDUES TO INVOKE CYCLIZATION WHILE CONCURRENTLY INTRODUCING A DOTAGA MOIETY FOR RADIOMETAL CHELATION” (The Governors of the University of Alberta, priority 2022, published 2025).

The target of the assay is recombinant human SSTR3 (Homo sapiens, UniProt P32745). Briefly: [125I]SST14 radioligand binding competition, filtration-based. The source says: This was accomplished using filtration-based assays against the radiolabeled peptide ^[125I]SST14. The reference compound used was the peptide SST28.
recombinant human SSTR3, sequence (P32745 whole entry): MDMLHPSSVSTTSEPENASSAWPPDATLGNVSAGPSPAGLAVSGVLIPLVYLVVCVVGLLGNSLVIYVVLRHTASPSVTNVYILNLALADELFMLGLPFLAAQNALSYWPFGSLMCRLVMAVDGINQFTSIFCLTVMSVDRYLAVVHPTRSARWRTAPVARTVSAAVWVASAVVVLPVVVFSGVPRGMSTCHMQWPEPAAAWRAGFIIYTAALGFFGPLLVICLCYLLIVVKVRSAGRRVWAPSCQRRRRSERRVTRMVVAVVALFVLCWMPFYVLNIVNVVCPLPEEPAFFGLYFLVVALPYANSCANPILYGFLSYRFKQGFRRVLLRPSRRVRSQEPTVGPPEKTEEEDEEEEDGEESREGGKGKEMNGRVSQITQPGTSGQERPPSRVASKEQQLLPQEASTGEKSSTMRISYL
SiFALP was also used to cyclize octreotide in a model reaction (Scheme 6).

The IC50 is the concentration that inhibits the measured activity by half. As to `C[C@@H](O)[C@@H]1NC(=O)[C@H](CCCCN)NC(=O)[C@@H](Cc2c[nH]c3ccccc23)NC(=O)[C@H](Cc2ccccc2)NC(=O)[C@@H](NC(=O)[C@H](N)Cc2ccccc2)CSC2=C(SC[C@@H](C(=O)N[C@H](CO)[C@@H](C)O)NC1=O)C(=O)N(Cc1cn(Cc3ccc([Si](F)(C(C)(C)C)C(C)(C)C)cc3)nn1)C2=O` [Octreo-SiFA], the IC50 was 0.211 µM.
